Measurements as given in US20100028420A1, “CONTROLLED RELEASE COMPOSITION AND PROCESS” (3M Innovative Properties Company, priority 2006, published 2010).
Where two headings read alike, the source gives them in different places.

Experiment: Titration of dispersed solid with sodium hydroxide (pKa from titration curve)
Format: physicochemical
Settings: for pKa: dispersion of the solid in deionized water
Procedure: The Comparative Compound (1.0 g) was dispersed in deionized water (199 mL) using a shear mixer/emulsifier (Silverson Model L4R, Silverson Machines, Ltd., Waterside, Chesham, Bucks, England) for approximately 5 minutes. Cresol red indicator (0.04 weight percent in water; 4 drops) was added to aid in end point detection. Samples were titrated (using a 50 mL buret with 0.1 mL graduation) with rapid stirring to maintain suspension of dispersed solid in the liquid medium (0.1 N analytical standard grade sodium hydroxide from Mallinckrodt Baker, Phillipsburg, N.J.) over a period of 1-3 hours. The dispersion became clear after 2 equivalents of base had been added, indicating conversion of the Comparative Compound to a compound corresponding to the righthand structure above. […] At higher concentrations, a liquid crystalline phase potentially useful for encapsulation of guest molecules is formed between a pH of about 7 and a pH of about 8. This phase forms at a steep end point transition of the titration curve, where even a small addition of base caused a significant change in pH (indicating a need for careful monitoring and control of the amount of base addition for use of the Comparative Compound in, for example, the encapsulation of pH-sensitive guest molecules).
(§1) Folic acid (1.0 g) was dispersed in deionized water (199 mL) using a Silverson L4R shear mixer/emulsifier for approximately 5 minutes. Cresol red indicator (0.04 weight percent in water; 4 drops) was added to aid in end point detection. Samples were titrated (using a 50 mL buret with 0.1 mL graduation) with rapid stirring to maintain suspension of dispersed solid in the liquid medium during the addition of base (0.1 N analytical standard grade sodium hydroxide from Mallinckrodt Baker, Phillipsburg, N.J.). The dispersion became clear after 2 equivalents of base had been added.
as §1, with “(2.0” for “(1.0”, “(198” for “(199”, “(0.2” for “(0.1”

[1] = 0.5 weight percent dispersion in deionized water, 0.1 N NaOH

Row | SMILES | first pKa [1] | second pKa [1] | pKa (0.5 weight percent dispersion in deionized water, 0.1 N NaOH, read-out: first pKa) | pKa (0.5 weight percent dispersion in deionized water, 0.1 N NaOH, read-out: second pKa) | pKa (1 weight percent dispersion in deionized water, 0.2 N NaOH, read-out: first pKa) | pKa (1 weight percent dispersion in deionized water, 0.2 N NaOH, read-out: second pKa)
1 | Cn1cc[n+](-c2nc(Nc3ccc(C(=O)O)cc3)nc(Nc3ccc(C(=O)O)cc3)n2)c1.[Cl-] [Comparative Compound] | about 3.2 | about 5.8 | – | – | – | –
2 | Nc1nc(=O)c2nc(CNc3ccc(C(=O)N[C@@H](CCC(=O)O)C(=O)O)cc3)cnc2[nH]1 [Folic acid] | – | – | ~5.8 | ~5.8 | ~6.1 | ~6.1
